Results taken from US20040033210A1, “Enhancement of antibody-cytokine fusion protein mediated immune responses by co-administration with prostaglandin inhibitor” (EMD Lexigen Research Center Corp., priority 1998, published 2004).

Tested on: LLC-EpCAM subcutaneous tumors
Assay: Combination therapy of LLC-Ep subcutaneous tumors in C57BL/6 mice with indomethacin (Example 5), tumor volume
Assay type: in vivo
Conditions: after treatment for 22 days; fusion protein 25 μg/mouse i.v., 5 daily injections; indomethacin 20 μg/mL in drinking water throughout
Method: FIG. 5 is a line graph depicting the effect on subcutaneous tumors of an antibody-cytokine fusion protein administered either alone or in combination with indomethacin. The size of LLC-EpCAM subcutaneous tumors were monitored in mice treated with phosphate buffered saline (closed diamonds), a huKS-huγ1-huIL2 fusion protein (closed squares), indomethocin (closed triangles), and a combination of the huKS-huγ1-huIL2 fusion protein and indomethocin (crosses).
Female C57lB6 mice were injected subcutaneously in the mid-back with LLC-Ep cells (5×10^5 per mouse) grown in cell culture. After about two weeks, animals with palpable tumors in the range of 150-400 mm^3 were divided into four groups, with an equal distribution of tumor sizes between the groups. […] Tumor growth was monitored by volumetric measurements until animals in the control group became moribund and were euthanized. Tumor volumes were measured with calipers and calculated as V=4 π/3 (0.5L×0.5W×0.5H), where L is the length, W is the width, and H is the height of the tumor. […]
When the tumors reached 100-200 mm^3 in size (about 7 to 14 days), the mice were randomized into four groups, 5 mice per group. […] Tumor volumes were measured as described in Example 3. […]

COc1ccc2c(c1)c(CC(=O)O)c(C)n2C(=O)c1ccc(Cl)cc1 [indomethacin]
T/C ratio: 0.60
